Data reported in US7041662B2, “Substituted benzo [b] azepin-2-one compounds” (Grunenthal GmbH, priority 2002, dated 2006).

System: phenylquinone-induced writhing reactions
Assay: phenylquinone-induced writhing in mice
Assay type: in vivo
Settings: male NMRI mice, phenylquinone i.p. 10 minutes after compound, writhing counted 5-20 minutes after phenylquinone
Description: The investigation into analgesic efficacy was performed by phenylquinone-induced writhing in mice (modified after: I. C. Hendershot, J. Forsaith, J. Pharmacol. Exp. There. 125, 237–240 (1959)). The corresponding literature description is hereby introduced as a reference and is deemed to be part of the disclosure.
Male NMRI mice weighing from 25 to 30 g were used for this purpose. Groups of 10 animals per substance dose received, 10 minutes after intravenous administration of the compounds tested, 0.3 ml/mouse of a 0.02% aqueous solution of phenylquinone (phenylbenzoquinone, Sigma, Deisenhofen; solution prepared with addition of 5% of ethanol and stored in a water bath at 45° C.) administered intraperitoneally. The animals were placed individually in observation cages. A push button counter was used to record the number of pain-induced stretching movements (writhing reactions=straightening of the torso with stretching of the rear extremities) for 5–20 minutes after phenylquinone administration. The control was provided by animals who received only physiological common salt solution.
The compounds were tested at the standard dosage of 10 mg/kg. Inhibition of the writhing reactions by a substance was calculated according to the following formula: […]
The in-depth investigation into analgesic efficacy was performed using phenylquinone-induced writhing in mice, as described above.

Compound	% inhibition of writhing reactions 10 mg/kg i.v. [%]
COc1cccc(C2(O)CCC(OC(=O)CC3=CCC(=O)Nc4cc(Cl)ccc43)CC2CN(C)C)c1 (stereo not drawn) [Example 5, 2′-(8-chloro-2-oxo-2,3-dihydro-1H-benzo[b]azepin-5-yl) acetic acid [3″-(N,N-dimethylaminomethyl)-4″-hydroxy-4″-(m-methoxyphenyl)cyclohexyl]ester]	63
COc1cccc(C2(O)CCC(NC(=O)CC3=CCC(=O)N(C)c4cc(Cl)ccc43)CC2CN(C)C)c1 (stereo not drawn) [Example 6, 2′-(8-chloro-1-methyl-2-oxo-2,3-dihydro-1H-benzo[b]azepin-5-yl)-N-[3″-(N,N-dimethylaminomethyl)-4″-hydroxy-4″-(m-methoxyphenyl)cyclohexyl]acetamide]	25
COc1cccc(C2(O)CCC(OC(=O)CC3=CCC(=O)N(C)c4cc(Cl)ccc43)CC2CN(C)C)c1 (stereo not drawn) [Example 4, 2′-(8-chloro-1-methyl-2-oxo-2,3-dihydro-1H-benzo[b]azepin-5-yl) acetic acid [3″-(N,N-dimethylaminomethyl)-4″-hydroxy-4″-(m-methoxyphenyl)cyclohexyl]ester]	39
